{"source": "ChEMBL document CHEMBL1147026", "about": "“Synthesis of pseudopeptides based L-tryptophan as a potential antimicrobial agent” (Bioorg Med Chem Lett, 2007)", "key": {"Micrococcus luteus": {"tested_on": "Micrococcus luteus", "test": "Antimicrobial activity against Micrococcus luteus CMCC(B) 28001 after 24 hrs by two fold dilution method", "format": "functional"}, "Bacillus subtilis": {"tested_on": "Bacillus subtilis", "test": "Antimicrobial activity against Bacillus subtilis after 24 hrs by two fold dilution method", "format": "functional"}, "Staphylococcus aureus [1]": {"tested_on": "Staphylococcus aureus", "test": "Antibacterial activity against methicillin-resistant Staphylococcus aureus CMAH 0430 after 24 hrs by two fold dilution method", "format": "functional"}, "Staphylococcus aureus [2]": {"tested_on": "Staphylococcus aureus", "test": "Antibacterial activity against methicillin-resistant Staphylococcus aureus CMAH 0515 after 24 hrs by two fold dilution method", "format": "functional"}, "Proteus vulgaris": {"tested_on": "Proteus vulgaris", "test": "Antimicrobial activity against Proteus vulgaris CMCC(B) 49001 after 24 hrs by two fold dilution method", "format": "functional"}, "Klebsiella aerogenes": {"tested_on": "Klebsiella aerogenes", "test": "Antibacterial activity against Enterobacter aerogenes CMCC(B) 45103 after 24 hrs by two fold dilution method", "format": "functional"}, "Pseudomonas aeruginosa": {"tested_on": "Pseudomonas aeruginosa", "test": "Antimicrobial activity against Pseudomonas aeruginosa ATCC 27853 after 24 hrs by two fold dilution method", "format": "functional", "details": "ATCC 27853, 24 h"}, "Escherichia coli": {"tested_on": "Escherichia coli", "test": "Antimicrobial activity against Escherichia coli ATCC 25922 after 24 hrs by two fold dilution method", "format": "functional", "details": "ATCC 25922, 24 h"}, "Staphylococcus aureus [3]": {"tested_on": "Staphylococcus aureus", "test": "Antibacterial activity against methicillin-resistant Staphylococcus aureus CMAH 0504 after 24 hrs by two fold dilution method", "format": "functional"}, "Staphylococcus aureus [4]": {"tested_on": "Staphylococcus aureus", "test": "Antibacterial activity against methicillin-susceptible Staphylococcus aureus ATCC 25923 after 24 hrs by two fold dilution method", "format": "functional", "details": "ATCC 25923, 24 h"}, "Candida albicans [5]": {"tested_on": "Candida albicans", "test": "Antifungal activity against Candida albicans CMAH 0501 after 48 to 72 hrs by broth microdilution method", "format": "functional"}, "[6]": {"test": "Toxicity in human erythrocytes assessed as haemolysis upto 4000 ug/mL", "format": "cell-based, Erythrocyte", "details": "read-out: Activity"}, "Saccharomyces cerevisiae": {"tested_on": "Saccharomyces cerevisiae", "test": "Antimicrobial activity against Saccharomyces cerevisiae after 48 to 72 hrs by broth microdilution method", "format": "functional"}, "Candida albicans [7]": {"tested_on": "Candida albicans", "test": "Antifungal activity against Candida albicans CMAM 0594 after 48 to 72 hrs by broth microdilution method", "format": "functional"}, "Aspergillus sp.": {"tested_on": "Aspergillus sp.", "test": "Antifungal activity against Aspergillus sp. after 48 to 72 hrs by broth microdilution method", "format": "functional", "details": "Aspergillus sp."}, "Candida albicans [8]": {"tested_on": "Candida albicans", "test": "Antifungal activity against Candida albicans CMAM 0577 after 48 to 72 hrs by broth microdilution method", "format": "functional"}, "Candida albicans [9]": {"tested_on": "Candida albicans", "test": "Antifungal activity against fluconazole-resistant Candida albicans CMAM 0597 after 48 to 72 hrs by broth microdilution method", "format": "functional"}, "Rhodotorula glutinis": {"tested_on": "Rhodotorula glutinis", "test": "Antimicrobial activity against Rhodotorula glutinis SYM 2209 after 48 to 72 hrs by broth microdilution method", "format": "functional"}, "Candida albicans [10]": {"tested_on": "Candida albicans", "test": "Antifungal activity against Candida albicans CMAH 0527 after 48 to 72 hrs by broth microdilution method", "format": "functional"}, "Candida albicans [11]": {"tested_on": "Candida albicans", "test": "Antifungal activity against Candida albicans CMAH 0507 after 48 to 72 hrs by broth microdilution method", "format": "functional"}, "Candida albicans [12]": {"tested_on": "Candida albicans", "test": "Antifungal activity against Candida albicans CMAH 0503 after 48 to 72 hrs by broth microdilution method", "format": "functional"}, "Candida albicans [13]": {"tested_on": "Candida albicans", "test": "Antifungal activity against fluconazole-resistant Candida albicans CMAH 0520 after 48 to 72 hrs by broth microdilution method", "format": "functional"}, "Candida albicans [14]": {"tested_on": "Candida albicans", "test": "Antifungal activity against Candida albicans CMAH 0572 after 48 to 72 hrs by broth microdilution method", "format": "functional"}, "Candida albicans [15]": {"tested_on": "Candida albicans", "test": "Antifungal activity against Candida albicans CMAH 0511 after 48 to 72 hrs by broth microdilution method", "format": "functional"}, "Candida albicans [16]": {"tested_on": "Candida albicans", "test": "Antifungal activity against Candida albicans ATCC 10231 after 48 to 72 hrs by broth microdilution method", "format": "functional"}, "Cryptococcus neoformans": {"tested_on": "Cryptococcus neoformans", "test": "Antifungal activity against Cryptococcus neoformans ATCC 90112 after 48 to 72 hrs by broth microdilution method", "format": "functional"}, "Candida albicans [17]": {"tested_on": "Candida albicans", "test": "Antifungal activity against Candida albicans CMAM 0592 after 48 to 72 hrs by broth microdilution method", "format": "functional"}}}
{"smiles": "CC1(C)S[C@@H]2[C@H](NC(=O)[C@H](N)c3ccccc3)C(=O)N2[C@H]1C(=O)O", "note": "[AMPICILLIN]", "values": [{"measurement": "MBC", "setting": "Micrococcus luteus", "value": 0.5, "unit": "µg/mL"}, {"measurement": "MIC", "setting": "Micrococcus luteus", "value": 0.3, "unit": "µg/mL"}, {"measurement": "MBC", "setting": "Bacillus subtilis", "value": 0.25, "unit": "µg/mL"}, {"measurement": "MIC", "setting": "Bacillus subtilis", "value": 0.3, "unit": "µg/mL"}, {"measurement": "MIC", "setting": "Staphylococcus aureus [1]", "value": "> 64", "unit": "µg/mL"}, {"measurement": "MIC", "setting": "Staphylococcus aureus [2]", "value": "> 64", "unit": "µg/mL"}, {"measurement": "MBC", "setting": "Proteus vulgaris", "value": 0.5, "unit": "µg/mL"}, {"measurement": "MIC", "setting": "Proteus vulgaris", "value": 0.3, "unit": "µg/mL"}, {"measurement": "MIC", "setting": "Klebsiella aerogenes", "value": "> 64", "unit": "µg/mL"}, {"measurement": "MIC", "setting": "Pseudomonas aeruginosa", "value": "> 64", "unit": "µg/mL"}, {"measurement": "MBC", "setting": "Escherichia coli", "value": 64, "unit": "µg/mL"}, {"measurement": "MIC", "setting": "Escherichia coli", "value": 32, "unit": "µg/mL"}, {"measurement": "MIC", "setting": "Staphylococcus aureus [3]", "value": "> 64", "unit": "µg/mL"}, {"measurement": "MBC", "setting": "Staphylococcus aureus [4]", "value": 0.5, "unit": "µg/mL"}, {"measurement": "MIC", "setting": "Staphylococcus aureus [4]", "value": 0.25, "unit": "µg/mL"}, {"measurement": "MFC", "setting": "Candida albicans [5]", "value": 128, "unit": "µg/mL"}, {"measurement": "MIC", "setting": "Candida albicans [5]", "value": 32, "unit": "µg/mL"}]}
{"smiles": "O=C(N[C@H](CO)[C@H](O)c1ccc([N+](=O)[O-])cc1)C(Cl)Cl", "note": "[CHLORAMPHENICOL]", "values": [{"measurement": "MBC", "setting": "Micrococcus luteus", "value": 4, "unit": "µg/mL"}, {"measurement": "MIC", "setting": "Micrococcus luteus", "value": 2, "unit": "µg/mL"}, {"measurement": "MBC", "setting": "Bacillus subtilis", "value": 2, "unit": "µg/mL"}, {"measurement": "MIC", "setting": "Bacillus subtilis", "value": 2, "unit": "µg/mL"}, {"measurement": "MBC", "setting": "Staphylococcus aureus [1]", "value": 2, "unit": "µg/mL"}, {"measurement": "MIC", "setting": "Staphylococcus aureus [1]", "value": 1, "unit": "µg/mL"}, {"measurement": "MBC", "setting": "Staphylococcus aureus [2]", "value": 4, "unit": "µg/mL"}, {"measurement": "MIC", "setting": "Staphylococcus aureus [2]", "value": 2, "unit": "µg/mL"}, {"measurement": "hemolysis", "setting": "[6]", "value": 14, "unit": "%"}, {"measurement": "MBC", "setting": "Proteus vulgaris", "value": 0.25, "unit": "µg/mL"}, {"measurement": "MIC", "setting": "Proteus vulgaris", "value": 0.25, "unit": "µg/mL"}, {"measurement": "MBC", "setting": "Klebsiella aerogenes", "value": 2, "unit": "µg/mL"}, {"measurement": "MIC", "setting": "Klebsiella aerogenes", "value": 2, "unit": "µg/mL"}, {"measurement": "MBC", "setting": "Pseudomonas aeruginosa", "value": 64, "unit": "µg/mL"}, {"measurement": "MIC", "setting": "Pseudomonas aeruginosa", "value": 32, "unit": "µg/mL"}, {"measurement": "MBC", "setting": "Escherichia coli", "value": 4, "unit": "µg/mL"}, {"measurement": "MIC", "setting": "Escherichia coli", "value": 2, "unit": "µg/mL"}, {"measurement": "MBC", "setting": "Staphylococcus aureus [3]", "value": 2, "unit": "µg/mL"}, {"measurement": "MIC", "setting": "Staphylococcus aureus [3]", "value": 2, "unit": "µg/mL"}, {"measurement": "MBC", "setting": "Staphylococcus aureus [4]", "value": 1, "unit": "µg/mL"}, {"measurement": "MIC", "setting": "Staphylococcus aureus [4]", "value": 1, "unit": "µg/mL"}]}
{"smiles": "OC(Cn1cncn1)(Cn1cncn1)c1ccc(F)cc1F", "note": "[FLUCONAZOLE]", "values": [{"measurement": "MIC", "setting": "Saccharomyces cerevisiae", "value": 4, "unit": "µg/mL"}, {"measurement": "MIC", "setting": "Candida albicans [7]", "value": 64, "unit": "µg/mL"}, {"measurement": "MIC", "setting": "Aspergillus sp.", "value": "> 64", "unit": "µg/mL"}, {"measurement": "MIC50", "setting": "Aspergillus sp.", "value": "> 64", "unit": "µg/mL"}, {"measurement": "MIC90", "setting": "Aspergillus sp.", "value": "> 64", "unit": "µg/mL"}, {"measurement": "MIC", "setting": "Candida albicans [8]", "value": 64, "unit": "µg/mL"}, {"measurement": "MIC", "setting": "Candida albicans [9]", "value": "> 64", "unit": "µg/mL"}, {"measurement": "MIC", "setting": "Rhodotorula glutinis", "value": "> 64", "unit": "µg/mL"}, {"measurement": "MIC", "setting": "Candida albicans [10]", "value": 64, "unit": "µg/mL"}, {"measurement": "MIC", "setting": "Candida albicans [11]", "value": 64, "unit": "µg/mL"}, {"measurement": "MIC", "setting": "Candida albicans [12]", "value": 32, "unit": "µg/mL"}, {"measurement": "MIC", "setting": "Candida albicans [13]", "value": "> 64", "unit": "µg/mL"}, {"measurement": "MIC", "setting": "Candida albicans [14]", "value": 64, "unit": "µg/mL"}, {"measurement": "MIC", "setting": "Candida albicans [15]", "value": 16, "unit": "µg/mL"}, {"measurement": "MIC", "setting": "Candida albicans [16]", "value": 8, "unit": "µg/mL"}, {"measurement": "MIC", "setting": "Cryptococcus neoformans", "value": 16, "unit": "µg/mL"}, {"measurement": "MIC", "setting": "Candida albicans [17]", "value": 32, "unit": "µg/mL"}, {"measurement": "MIC", "setting": "Candida albicans [5]", "value": 16, "unit": "µg/mL"}]}
{"smiles": "NC[C@H]1O[C@H](O[C@H]2[C@H](O)[C@@H](O[C@H]3O[C@H](CO)[C@@H](O)[C@H](N)[C@H]3O)[C@H](N)C[C@@H]2N)[C@H](O)[C@@H](O)[C@@H]1O", "note": "[KANAMYCIN]", "values": [{"measurement": "MBC", "setting": "Micrococcus luteus", "value": 0.25, "unit": "µg/mL"}, {"measurement": "MIC", "setting": "Micrococcus luteus", "value": 0.25, "unit": "µg/mL"}, {"measurement": "MBC", "setting": "Bacillus subtilis", "value": 4, "unit": "µg/mL"}, {"measurement": "MIC", "setting": "Bacillus subtilis", "value": 4, "unit": "µg/mL"}, {"measurement": "MIC", "setting": "Staphylococcus aureus [1]", "value": "> 64", "unit": "µg/mL"}, {"measurement": "MIC", "setting": "Staphylococcus aureus [2]", "value": "> 64", "unit": "µg/mL"}, {"measurement": "MBC", "setting": "Proteus vulgaris", "value": 0.5, "unit": "µg/mL"}, {"measurement": "MIC", "setting": "Proteus vulgaris", "value": 0.25, "unit": "µg/mL"}, {"measurement": "MBC", "setting": "Klebsiella aerogenes", "value": 0.25, "unit": "µg/mL"}, {"measurement": "MIC", "setting": "Klebsiella aerogenes", "value": 0.25, "unit": "µg/mL"}, {"measurement": "MBC", "setting": "Pseudomonas aeruginosa", "value": "> 128", "unit": "µg/mL"}, {"measurement": "MIC", "setting": "Pseudomonas aeruginosa", "value": 64, "unit": "µg/mL"}, {"measurement": "MBC", "setting": "Escherichia coli", "value": 0.25, "unit": "µg/mL"}, {"measurement": "MIC", "setting": "Escherichia coli", "value": 0.25, "unit": "µg/mL"}, {"measurement": "MIC", "setting": "Staphylococcus aureus [3]", "value": "> 64", "unit": "µg/mL"}, {"measurement": "MBC", "setting": "Staphylococcus aureus [4]", "value": 0.5, "unit": "µg/mL"}, {"measurement": "MIC", "setting": "Staphylococcus aureus [4]", "value": 0.25, "unit": "µg/mL"}]}
